From PubChem BioAssay (NCI)
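Protocol summary: plate cells (96-well), add compound at 5 concentrations, incubate 48 h, interpolate endpoints linearly. GI50 = concentration required for 50% inhibition of growth. TGI denotes the concentration required for complete inhibition of growth.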

Experiments:
Assay in all cases: NCI anticancer screen, dose series, 48 h
ACHN renal = tested on: ACHN renal
IGROV1 ovarian = tested on: IGROV1 ovarian
KM12 colon = tested on: KM12 colon
U251 CNS = tested on: U251 CNS
MOLT-4 leukemia = tested on: MOLT-4 leukemia
HOP-62 NSCLC = tested on: HOP-62 NSCLC
SNB-75 CNS = tested on: SNB-75 CNS
K-562 leukemia = tested on: K-562 leukemia
NCI/ADR-RES ovarian = tested on: NCI/ADR-RES ovarian
MCF7 breast = tested on: MCF7 breast
DU-145 prostate = tested on: DU-145 prostate
NCI-H226 lung = tested on: NCI-H226 lung
OVCAR-5 ovarian = tested on: OVCAR-5 ovarian
UACC-62 melanoma = tested on: UACC-62 melanoma
HS 578T breast = tested on: HS 578T breast
COLO 205 colon = tested on: COLO 205 colon
HOP-92 NSCLC = tested on: HOP-92 NSCLC
UACC-257 melanoma = tested on: UACC-257 melanoma
MALME-3M melanoma = tested on: MALME-3M melanoma
A498 renal = tested on: A498 renal
MDA-MB-231 breast = tested on: MDA-MB-231 breast
PC-3 prostate = tested on: PC-3 prostate
SW-620 colon = tested on: SW-620 colon
CCRF-CEM leukemia = tested on: CCRF-CEM leukemia
SNB-19 CNS = tested on: SNB-19 CNS
T-47D breast = tested on: T-47D breast
HT29 colon = tested on: HT29 colon
NCI-H23 lung = tested on: NCI-H23 lung

**Q.** Which results are given for `CCCCCCCCCCCCCCNc1nc(C(=O)OCC)ncc1-c1ccc(C(F)(F)F)cc1`?
**A.** GI50 (ACHN renal): > 100 µM; TGI (ACHN renal): > 100 µM; GI50 (IGROV1 ovarian): > 100 µM; TGI (IGROV1 ovarian): > 100 µM; GI50 (KM12 colon): > 100 µM; TGI (KM12 colon): > 100 µM; GI50 (U251 CNS): > 100 µM; TGI (U251 CNS): > 100 µM; GI50 (MOLT-4 leukemia): > 100 µM; TGI (MOLT-4 leukemia): > 100 µM; GI50 (HOP-62 NSCLC): > 100 µM; TGI (HOP-62 NSCLC): > 100 µM; GI50 (SNB-75 CNS): > 100 µM; TGI (SNB-75 CNS): > 100 µM; GI50 (K-562 leukemia): > 100 µM; TGI (K-562 leukemia): > 100 µM; GI50 (NCI/ADR-RES ovarian): > 100 µM; TGI (NCI/ADR-RES ovarian): > 100 µM; GI50 (MCF7 breast): > 100 µM; TGI (MCF7 breast): > 100 µM; GI50 (DU-145 prostate): > 100 µM; TGI (DU-145 prostate): > 100 µM; GI50 (NCI-H226 lung): > 100 µM; TGI (NCI-H226 lung): > 100 µM; GI50 (OVCAR-5 ovarian): > 100 µM; TGI (OVCAR-5 ovarian): > 100 µM; GI50 (UACC-62 melanoma): > 100 µM; TGI (UACC-62 melanoma): > 100 µM; GI50 (HS 578T breast): > 100 µM; TGI (HS 578T breast): > 100 µM; GI50 (COLO 205 colon): > 100 µM; TGI (COLO 205 colon): > 100 µM; GI50 (HOP-92 NSCLC): > 100 µM; TGI (HOP-92 NSCLC): > 100 µM; GI50 (UACC-257 melanoma): > 100 µM; TGI (UACC-257 melanoma): > 100 µM; GI50 (MALME-3M melanoma): > 100 µM; TGI (MALME-3M melanoma): > 100 µM; GI50 (A498 renal): > 100 µM; TGI (A498 renal): > 100 µM; GI50 (MDA-MB-231 breast): > 100 µM; TGI (MDA-MB-231 breast): > 100 µM; GI50 (PC-3 prostate): 27.5 µM; TGI (PC-3 prostate): > 100 µM; GI50 (SW-620 colon): > 100 µM; TGI (SW-620 colon): > 100 µM; GI50 (CCRF-CEM leukemia): > 100 µM; TGI (CCRF-CEM leukemia): > 100 µM; GI50 (SNB-19 CNS): > 100 µM; TGI (SNB-19 CNS): > 100 µM; GI50 (T-47D breast): > 100 µM; TGI (T-47D breast): > 100 µM; GI50 (HT29 colon): > 100 µM; TGI (HT29 colon): > 100 µM; GI50 (NCI-H23 lung): > 100 µM; TGI (NCI-H23 lung): > 100 µM
